BindingDB's records for doi:10.1021/jm00366a022 (1984)

Key:
[1] = target: Alpha-1 adrenergic receptor (Bos taurus); assay: Binding affinity against alpha-1 adrenergic receptor from calf cerebral cortex, using [3H]prazosin as the radioligand
[2] = target: Alpha-1 adrenergic receptor (Bos taurus); assay: as above; remark: listed apart in the source

| Compound | Ki [1] | Ki [2] |
| --- | --- | --- |
| Cc1ccc(NCC2=NCCN2)cc1 [(4,5-Dihydro-1H-imidazol-2-ylmethyl)-p-tolyl-amine] | 230 nM |  |
| Oc1cccc(NCC2=NCCN2)c1 [3-[(4,5-Dihydro-1H-imidazol-2-ylmethyl)-amino]-phenol] |  | 380 nM |
| CCN(CC1=NCCN1)c1ccc(C)cc1 [(4,5-Dihydro-1H-imidazol-2-ylmethyl)-ethyl-p-tolyl-amine] | 300 nM |  |

Second part, the compound after the results:

| Ki [1] | Ki [2] | Compound |
| --- | --- | --- |
|  | 150 nM | Cc1ccc(N(C)CC2=NCCN2)cc1 [(4,5-Dihydro-1H-imidazol-2-ylmethyl)-methyl-p-tolyl-amine] |
| 424 nM |  | Cc1ccc(N(CC2=NCCN2)C2CCCCC2)cc1 [Cyclohexyl-(4,5-dihydro-1H-imidazol-2-ylmethyl)-p-tolyl-amine] |
